# Source: PubChem BioAssay AID1963854 (Molecular Pharmacology Branch, DTP, NCI, 2024)
# Tested on: 186277-243-T-J2-PDC complex spheroid viability
# Assay: Anticancer human tumor 186277-243-T-J2-PDC patient-derived colon adenocarcinoma cell line growth inhibition [POLQ]
# Details: for IC50: curve of first compound; for viability, T/C: stronger effect = lower value
# In short: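 Patient-derived tumour cells were co-cultured with HUVEC and mesenchymal stem cells as multicellular spheroids at 37 °C. They were treated with POLQ inhibitors (novobiocin, ART-558, RP6685) alone or combined with other agents. Top concentrations were at or near clinical Cmax (otherwise 10 microM; SN-38 at 1 microM), decreasing in half-log steps.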
# [1] = second compound 0.0316 µM, first compound 0.0316 µM
# [2] = second compound 0.0316 µM, first compound 0.1 µM
# [3] = second compound 0.0316 µM, first compound 0.316 µM
# [4] = second compound 0.0316 µM, first compound 1 µM
# [5] = second compound 0.0316 µM, first compound 3.16 µM
# [6] = second compound 0.0316 µM, first compound 10 µM
# [7] = second compound 0.1 µM, first compound 0.0316 µM
# [8] = second compound 0.1 µM, first compound 0.1 µM
# [9] = second compound 0.1 µM, first compound 0.316 µM
# [10] = second compound 0.1 µM, first compound 1 µM
# [11] = second compound 0.1 µM, first compound 3.16 µM
# [12] = second compound 0.1 µM, first compound 10 µM
# [13] = second compound 0.316 µM, first compound 0.0316 µM
# [14] = second compound 0.316 µM, first compound 0.1 µM
# [15] = second compound 0.316 µM, first compound 0.316 µM
# [16] = second compound 0.316 µM, first compound 1 µM
# [17] = second compound 0.316 µM, first compound 3.16 µM
# [18] = second compound 0.316 µM, first compound 10 µM
# [19] = second compound 1 µM, first compound 0.0316 µM
# [20] = second compound 1 µM, first compound 0.1 µM
# [21] = second compound 1 µM, first compound 0.316 µM
# [22] = second compound 1 µM, first compound 1 µM
# [23] = second compound 1 µM, first compound 3.16 µM
# [24] = second compound 1 µM, first compound 10 µM
# [25] = second compound 3.16 µM, first compound 0.0316 µM
# [26] = second compound 3.16 µM, first compound 0.1 µM
# [27] = second compound 3.16 µM, first compound 0.316 µM
# [28] = second compound 3.16 µM, first compound 1 µM
# [29] = second compound 3.16 µM, first compound 3.16 µM
# [30] = second compound 3.16 µM, first compound 10 µM
# [31] = second compound 10 µM, first compound 0.0316 µM
# [32] = second compound 10 µM, first compound 0.1 µM
# [33] = second compound 10 µM, first compound 0.316 µM
# [34] = second compound 10 µM, first compound 1 µM
# [35] = second compound 10 µM, first compound 3.16 µM
# [36] = second compound 10 µM, first compound 10 µM
# 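Note: spheroids exposed to compounds for seven days.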
# 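Throughout, for viability, T/C: 100% = DMSO vehicle control viability.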
structure (smiles),measurement,setting,value
O=C(c1cc(Cc2n[nH]c(=O)c3ccccc23)ccc1F)N1CCN(C(=O)C2CC2)CC1 + Cc1cccc(N(C)C(=O)C2C(O)CCN2c2nc(C)cc(C(F)(F)F)c2C#N)c1,IC50,second compound 0.0316 µM,> 10 µM
same,IC50,second compound 0.1 µM,> 10 µM
same,IC50,second compound 0.316 µM,> 10 µM
same,IC50,second compound 1 µM,> 10 µM
same,IC50,second compound 3.16 µM,> 10 µM
same,IC50,second compound 10 µM,> 10 µM
same,"viability, T/C",[1],89.3%
same,"viability, T/C",[2],99.9%
same,"viability, T/C",[3],99.9%
same,"viability, T/C",[4],100%
same,"viability, T/C",[5],118%
same,"viability, T/C",[6],75.5%
same,"viability, T/C",[7],94%
same,"viability, T/C",[8],92.4%
same,"viability, T/C",[9],96.3%
same,"viability, T/C",[10],92.7%
same,"viability, T/C",[11],114%
same,"viability, T/C",[12],81.8%
same,"viability, T/C",[13],94.8%
same,"viability, T/C",[14],116%
same,"viability, T/C",[15],99.7%
same,"viability, T/C",[16],97%
same,"viability, T/C",[17],112%
same,"viability, T/C",[18],78.1%
same,"viability, T/C",[19],101%
same,"viability, T/C",[20],96.8%
same,"viability, T/C",[21],113%
same,"viability, T/C",[22],90.7%
same,"viability, T/C",[23],99.5%
same,"viability, T/C",[24],76.1%
same,"viability, T/C",[25],96.3%
same,"viability, T/C",[26],99%
same,"viability, T/C",[27],97.6%
same,"viability, T/C",[28],106%
same,"viability, T/C",[29],113%
same,"viability, T/C",[30],58.7%
same,"viability, T/C",[31],115%
same,"viability, T/C",[32],103%
same,"viability, T/C",[33],100%
same,"viability, T/C",[34],108%
same,"viability, T/C",[35],113%
same,"viability, T/C",[36],65.2%
C=CCn1c(=O)c2cnc(Nc3ccc(N4CCN(C)CC4)cc3)nc2n1-c1cccc(C(C)(C)O)n1 + Cc1cccc(N(C)C(=O)C2C(O)CCN2c2nc(C)cc(C(F)(F)F)c2C#N)c1,IC50,second compound 0.0316 µM,0.213 µM
same,IC50,second compound 0.1 µM,0.23 µM
same,IC50,second compound 0.316 µM,0.22 µM
same,IC50,second compound 1 µM,0.226 µM
same,IC50,second compound 3.16 µM,0.223 µM
same,IC50,second compound 10 µM,0.224 µM
same,"viability, T/C","second compound 0.0316 µM, first compound 0.00316 µM",107%
same,"viability, T/C","second compound 0.0316 µM, first compound 0.01 µM",102%
same,"viability, T/C",[1],88.4%
same,"viability, T/C",[2],96.3%
same,"viability, T/C",[3],25.9%
same,"viability, T/C",[4],12.5%
same,"viability, T/C","second compound 0.1 µM, first compound 0.00316 µM",99.1%
same,"viability, T/C","second compound 0.1 µM, first compound 0.01 µM",112%
same,"viability, T/C",[7],95.3%
same,"viability, T/C",[8],106%
same,"viability, T/C",[9],29.6%
same,"viability, T/C",[10],13.7%
same,"viability, T/C","second compound 0.316 µM, first compound 0.00316 µM",88.1%
same,"viability, T/C","second compound 0.316 µM, first compound 0.01 µM",99.4%
same,"viability, T/C",[13],103%
same,"viability, T/C",[14],111%
same,"viability, T/C",[15],26.6%
same,"viability, T/C",[16],13.8%
same,"viability, T/C","second compound 1 µM, first compound 0.00316 µM",102%
same,"viability, T/C","second compound 1 µM, first compound 0.01 µM",119%
same,"viability, T/C",[19],104%
same,"viability, T/C",[20],110%
same,"viability, T/C",[21],25.7%
same,"viability, T/C",[22],12.5%
same,"viability, T/C","second compound 3.16 µM, first compound 0.00316 µM",119%
same,"viability, T/C","second compound 3.16 µM, first compound 0.01 µM",95.7%
same,"viability, T/C",[25],102%
same,"viability, T/C",[26],131%
same,"viability, T/C",[27],22.8%
same,"viability, T/C",[28],16.8%
same,"viability, T/C","second compound 10 µM, first compound 0.00316 µM",116%
same,"viability, T/C","second compound 10 µM, first compound 0.01 µM",102%
same,"viability, T/C",[31],106%
same,"viability, T/C",[32],106%
same,"viability, T/C",[33],24.7%
same,"viability, T/C",[34],12.8%
CC(C)n1c(=O)n(C)c2cnc3cc(F)c(-c4ccc(OCCCN5CCCCC5)nc4)cc3c21 + Cc1cccc(N(C)C(=O)C2C(O)CCN2c2nc(C)cc(C(F)(F)F)c2C#N)c1,IC50,second compound 0.0316 µM,> 10 µM
same,IC50,second compound 0.1 µM,> 10 µM
same,IC50,second compound 0.316 µM,> 10 µM
same,IC50,second compound 1 µM,> 10 µM
same,IC50,second compound 3.16 µM,> 10 µM
same,IC50,second compound 10 µM,> 10 µM
same,"viability, T/C",[1],101%
same,"viability, T/C",[2],97.7%
same,"viability, T/C",[3],94.8%
same,"viability, T/C",[4],90.8%
same,"viability, T/C",[5],119%
same,"viability, T/C",[6],100%
same,"viability, T/C",[7],88.8%
same,"viability, T/C",[8],93.2%
same,"viability, T/C",[9],103%
same,"viability, T/C",[10],92.3%
same,"viability, T/C",[11],98%
same,"viability, T/C",[12],88.2%
same,"viability, T/C",[13],90.6%
same,"viability, T/C",[14],95.6%
same,"viability, T/C",[15],94%
same,"viability, T/C",[16],87.6%
same,"viability, T/C",[17],119%
same,"viability, T/C",[18],93.9%
same,"viability, T/C",[19],104%
same,"viability, T/C",[20],107%
same,"viability, T/C",[21],99.6%
same,"viability, T/C",[22],102%
same,"viability, T/C",[23],102%
same,"viability, T/C",[24],84.5%
same,"viability, T/C",[25],84.3%
same,"viability, T/C",[26],86.8%
same,"viability, T/C",[27],99.4%
same,"viability, T/C",[28],96%
same,"viability, T/C",[29],107%
same,"viability, T/C",[30],97.2%
same,"viability, T/C",[31],112%
same,"viability, T/C",[32],94.6%
same,"viability, T/C",[33],103%
same,"viability, T/C",[34],114%
same,"viability, T/C",[35],94.9%
same,"viability, T/C",[36],82.7%
C=CC(=O)N1CCN(c2nc(=O)n(-c3c(C)ccnc3C(C)C)c3nc(-c4c(O)cccc4F)c(F)cc23)C(C)C1 (stereo not drawn) + COC1C(OC(N)=O)C(O)C(Oc2ccc3c(O)c(NC(=O)c4ccc(O)c(CC=C(C)C)c4)c(=O)oc3c2C)OC1(C)C,IC50,second compound 0.0316 µM,> 10 µM
same,IC50,second compound 0.1 µM,> 10 µM
same,IC50,second compound 0.316 µM,> 10 µM
same,IC50,second compound 1 µM,> 10 µM
same,IC50,second compound 3.16 µM,> 10 µM
same,IC50,second compound 10 µM,> 10 µM
same,"viability, T/C",[1],94%
same,"viability, T/C",[2],88.7%
same,"viability, T/C",[3],111%
same,"viability, T/C",[4],88.2%
same,"viability, T/C",[5],102%
same,"viability, T/C",[6],85.9%
same,"viability, T/C",[7],90.2%
same,"viability, T/C",[8],91.8%
same,"viability, T/C",[9],98.3%
same,"viability, T/C",[10],90.2%
same,"viability, T/C",[11],87%
same,"viability, T/C",[12],97%
same,"viability, T/C",[13],98%
same,"viability, T/C",[14],102%
same,"viability, T/C",[15],91.5%
same,"viability, T/C",[16],104%
same,"viability, T/C",[17],110%
same,"viability, T/C",[18],98.1%
same,"viability, T/C",[19],97.3%
same,"viability, T/C",[20],93.9%
same,"viability, T/C",[21],101%
same,"viability, T/C",[22],90.7%
same,"viability, T/C",[23],96.6%
same,"viability, T/C",[24],97.7%
same,"viability, T/C",[25],93.5%
same,"viability, T/C",[26],94.5%
same,"viability, T/C",[27],99.3%
same,"viability, T/C",[28],101%
same,"viability, T/C",[29],87.5%
same,"viability, T/C",[30],87.3%
same,"viability, T/C",[31],92.9%
same,"viability, T/C",[32],104%
same,"viability, T/C",[33],92.3%
same,"viability, T/C",[34],84.5%
same,"viability, T/C",[35],116%
same,"viability, T/C",[36],83.3%
